From patent US10584303B2, “Stabilization of isothiazolones in aqueous compositions” (DDP Specialty Electronic Materials US, Inc., priority 2014, dated 2020)
Read-outs that look alike come from different tables or passages of the source.

Columns and labels:
[1] = Stability of MIT: 25% amine and 10 ppm MIT (HPLC); settings: extremely high ratios of amine:isothiazolone (25% amine, 10 ppm MIT); room temperature and 40° C.
Method: (§1) The MWF samples dosed with biocide were analyzed for active level by high pressure liquid chromatography (HPLC) at time 0. The samples were then vortexed and split into a sample that was aged at room temperature and a sample that was aged at 40° C. Each week an aliquot of the aged samples was evaluated by HPLC for the level of active remaining. Samples where no active was found for two consecutive weeks were no longer analyzed.

[2] = 168 h
Method: as §1

stability of MIT compared with other amines [1]	SMILES	remaining active ingredient MIT [2]	remaining active ingredient MIT (336 h)	remaining active ingredient MIT (504 h)
much better stability	CCC(O)CN(CCO)CCO (stereo not drawn) [Amine A, 1-[bis(hydroxylethyl)amino]-2-butanol]	–	–	–
much better stability	CCC(O)CN(CCO)CC(O)CC (stereo not drawn) [Amine D, N,N-bis(2-hydroxybutyl)-2-amino ethanol]	–	–	–
–	NCCO [Amine F, 2-aminoethanol, reference compound]	0 wt %	108 wt %	–
–	CC(O)CN(CC(C)O)CC(C)O (stereo not drawn) [Amine G, triisopropanol amine]	–	110 wt %	108 wt %
